{"source": "patent US20130338032A1", "about": "“ASSAY FOR DETERMINING EPIGENETIC PROFILES OF MARKERS OF FRAGILE X ALLELES” (Murdoch Childrens Research Institute, priority 2009, published 2013)", "format_in_all_cases": "cell-based, human", "key": {"[1]": {"system": "FMR1 mRNA", "experiment": "FMR1 mRNA (real-time PCR) in lymphoblast cell lines treated with 5-aza", "conditions": "5-aza 0, 1, 10, 100 μM, 3 days", "experimental": "FIG. 1B through J is a graphical representation of the expression of the FMR1 and FRR4 mRNA and FREE1 methylation in lymphoblast cultures with selectively depleted DNMTI. Cell lines from (B, C, D) a HC cell line (30 CGGs), (E, F, G) a PM cell line (103 CGGs) and (H, I, J) a FM cell line from an FXS individual (490 CGGs) were cultured for 3 days in standard RPMI medium/10% v/v fetal bovine serum treated with different doses of 5-aza-deoxycytidine, in triplicate wells, with half of the cells from each well taken for DNA methylation analysis, and the other half for mRNA analyses. FREE1 methylation for each sample was examined from duplicate bisulfite reactions, with single PCR products made from each conversion. The 0.1 methylation output ratio cutoff was not used for this experiment due to an increased number of technical replicates, with values expressed as means of six technical replicates per condition. Methylation and mRNA levels were assessed in the same wells using MALDI-TOF MS and real-time PCR, respectively. The error bars represent standard error (n=3 to 6). […]\n(§1) Lymphoblast cell lines were established by Epstein-Barr virus (EBV) transformation from peripheral blood of individuals with: 30, 170 and 490 repeats. […] The cell-viability counts and cell composition were determined by trypan blue exclusion, using a hemocytometer. […]"}, "[2]": {"system": "FMR4/ASFMR1 mRNA", "experiment": "FMR4/ASFMR1 mRNA (real-time PCR) in lymphoblast cell lines treated with 5-aza", "experimental": "(§2) FIG. 1B through J is a graphical representation of the expression of the FMR1 and FRR4 mRNA and FREE1 methylation in lymphoblast cultures with selectively depleted DNMTI. Cell lines from (B, C, D) a HC cell line (30 CGGs), (E, F, G) a PM cell line (103 CGGs) and (H, I, J) a FM cell line from an FXS individual (490 CGGs) were cultured for 3 days in standard RPMI medium/10% v/v fetal bovine serum treated with different doses of 5-aza-deoxycytidine, in triplicate wells, with half of the cells from each well taken for DNA methylation analysis, and the other half for mRNA analyses. FREE1 methylation for each sample was examined from duplicate bisulfite reactions, with single PCR products made from each conversion. The 0.1 methylation output ratio cutoff was not used for this experiment due to an increased number of technical replicates, with values expressed as means of six technical replicates per condition. Methylation and mRNA levels were assessed in the same wells using MALDI-TOF MS and real-time PCR, respectively. The error bars represent standard error (n=3 to 6). All conditions were compared to 0 μM 5-aza control: ***-p<0.001; **-p<0.05.\nas §1\nTotal RNA was extracted and purified using the Rneasy extraction kit, as per manufacturer's instructions (Qiagen Inc., Hilden, Germany). RNA concentrations were measured in triplicate using a NanoDrop ND-1000 Spectrophotometer, with purity being determined by the A260/A280 ratio using the expected values between 1.8 and 2. Total RNA quality and the degree of DNA contamination was also assessed using capillary electrophoresis Standard Sens Kit (Bio-rad), which involved descriptive comparison of chromatographic features based on previous publications using this system (Fleige and Pfaffl, Mol Aspects Med 27(2-3):126-139, 2006). […]"}, "[3]": {"system": "FREE1", "experiment": "FREE1 methylation (MALDI-TOF MS) in lymphoblast cell lines treated with 5-aza", "experimental": "as §2\nLymphoblast cell lines were established by Epstein-Barr virus (EBV) transformation from peripheral blood of individuals with: 30, 170 and 490 repeats. The cell lines were treated with 5 aza based on a previously described protocol (Pietrobono et al, 2002, supra). Briefly, A 10 mM stock solution of 5-aza (Sigma-Aldrich) was initially prepared in sterile water. The cell-viability counts and cell composition were determined by trypan blue exclusion, using a hemocytometer. Cells were then resuspended at a density of […] in RPMI medium (Sigma St Luis, Mo., USA)/10% v/v Fetal bovine serum (CSL) at 37° C., 5% v/v CO2, supplemented with of 5-aza stock and thoroughly resuspended. The cells were cultured in triplicate wells for each of the four final 5-Aza concentrations of: 0, 1, 10 and 100 μM. […]"}, "[4]": {"conditions": "GZ and PM cell lines, 5-aza 0, 1, 10, 100 μM, 3 days"}, "[5]": {"conditions": "cell lines for FM carriers affected with FXS, 5-aza 0, 1, 10, 100 μM, 3 days"}, "[6]": {"conditions": "cell lines from carriers of CGG alleles ranging from normal size to FM, 5-Aza treatment"}}, "data": [{"smiles": "Nc1ncn([C@H]2C[C@H](O)[C@@H](CO)O2)c(=O)n1", "note": "[5-aza, 5-aza-2′-deoxycytidine]", "values": [{"measurement": "FMR1 mRNA levels", "setting": "[1]; GZ and PM cell lines", "result": "increase"}, {"measurement": "mRNA levels of FMR1", "setting": "[1]; cell lines for FM carriers affected with FXS", "result": "increase in mRNA levels"}, {"measurement": "ASFMR1/FMR4 mRNA levels", "setting": "[2]; [4]", "result": "increase"}, {"measurement": "mRNA levels of ASFMR1/FMR4", "setting": "[2]; [5]", "result": "increase in mRNA levels"}, {"measurement": "FMR4/ASFMR1 transcription within the FREE1", "setting": "[2]; [6]", "result": "increase FMR4/ASFMR1 transcription"}, {"measurement": "FREE1 methylation", "setting": "[3]; [4]", "result": "further demethylation of FREE1"}, {"measurement": "FREE1 methylation", "setting": "[3]; [5]", "result": "demethylation of FREE1"}, {"measurement": "FREE1 methylation", "setting": "[3]; [6]", "result": "de-methylation of the FREE1"}]}]}
